These results are taken from patent publication US6562317B2, “Radioactive embolizing compositions” (Micro Therapeutics, Inc., priority 1997, dated 2003).

The data set can be described thus: Cure of prepolymer injected into 0.1 N NaHCO3 aqueous solution simulating a blood environment. Format: physicochemical. The settings on record: cyanoacrylate without iridium, same procedure. The procedure:
About 0.2 cc of this composition was taken up in a 1 cc syringe through a 21 gage needle and injected into about 150 cc of a 0.1 N NaHCO3 aqueous solution to simulate a blood environment and cure the prepolymer. Upon injection, three small black/gray droplets were formed which immediately fell to the bottom of the container. It took about 15 minutes for the cyanoacrylate to fully cure and to be tack free.

As for `C=C(C#N)C(=O)OCCCC` [cyanoacrylate alone, n-butyl cyanoacrylate], the “cure time compared with the iridium composition” value is recorded as “cured in approximately the same time”.
